In ChEMBL document CHEMBL1150260 (J Med Chem, 2008):

Columns and labels:
Rattus norvegicus [1] = species on record: Rattus norvegicus; assay: Selectivity for rat dopamine D3 receptor over rat dopamine D2L receptor
D(3) dopamine receptor [2] = target: D(3) dopamine receptor (Rattus norvegicus, UniProt P19020); assay: biochemical
Description: Displacement of [3H]spiperone from rat dopamine D3 receptor expressed in HEK293 cells

D(2) dopamine receptor [3] = target: D(2) dopamine receptor (Rattus norvegicus, UniProt P61169); assay: biochemical
Description: Displacement of [3H]spiperone from rat dopamine D2L receptor expressed in HEK293 cells

D(2) dopamine receptor [4] = target: T1, D(2) dopamine receptor (Homo sapiens, UniProt P14416); assay: Agonist activity at human dopamine D2L receptor expressed in CHO cells assessed as stimulation of [35S]GTPgammaS binding relative to dopamine; format: functional, cell-based
T1 sequence (P14416 whole entry): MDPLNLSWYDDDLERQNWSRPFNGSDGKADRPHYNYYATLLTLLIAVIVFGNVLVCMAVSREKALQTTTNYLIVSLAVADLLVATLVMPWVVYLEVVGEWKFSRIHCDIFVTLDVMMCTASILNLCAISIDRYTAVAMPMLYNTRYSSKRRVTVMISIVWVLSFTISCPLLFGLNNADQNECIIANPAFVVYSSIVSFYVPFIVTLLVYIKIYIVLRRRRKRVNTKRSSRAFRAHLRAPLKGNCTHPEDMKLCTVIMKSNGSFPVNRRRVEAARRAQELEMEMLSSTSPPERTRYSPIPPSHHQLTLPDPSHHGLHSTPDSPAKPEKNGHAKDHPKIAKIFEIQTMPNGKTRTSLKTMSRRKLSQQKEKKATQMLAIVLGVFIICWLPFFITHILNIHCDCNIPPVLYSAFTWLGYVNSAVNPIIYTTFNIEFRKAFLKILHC

Rattus norvegicus [5] = assay: Induction of rotational activity in 6-hydroxydopamine unilaterally lesioned rat assessed as number of contralateral rotation at 2.5 umol/kg, sc after 8 hrs; format: functional
D(3) dopamine receptor [6] = target: D(3) dopamine receptor (Homo sapiens, UniProt P35462)
D(3) dopamine receptor (Homo sapiens, UniProt P35462), sequence (P35462 whole entry): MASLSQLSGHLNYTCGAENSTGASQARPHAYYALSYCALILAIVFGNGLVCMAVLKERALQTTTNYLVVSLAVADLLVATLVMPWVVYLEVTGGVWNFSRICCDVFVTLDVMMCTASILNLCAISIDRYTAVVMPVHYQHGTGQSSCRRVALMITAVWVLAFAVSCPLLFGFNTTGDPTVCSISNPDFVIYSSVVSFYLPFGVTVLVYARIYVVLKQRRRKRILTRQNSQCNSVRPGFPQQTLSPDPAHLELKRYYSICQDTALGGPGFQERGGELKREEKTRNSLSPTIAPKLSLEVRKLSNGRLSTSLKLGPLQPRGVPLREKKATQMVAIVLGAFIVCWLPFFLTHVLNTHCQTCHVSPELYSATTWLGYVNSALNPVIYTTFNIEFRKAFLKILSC
Description: Agonist activity at human dopamine D3 receptor expressed in mouse ATt-20 cells assessed as stimulation of [35S]GTPgammaS binding

Rattus norvegicus [7] = assay: Induction of rotational activity in 6-hydroxydopamine unilaterally lesioned rat assessed as number of contralateral rotation at 5 umol/kg, sc after […]; format: functional
Rattus norvegicus [8] = assay: Induction of rotational activity in subcutaneously dosed 6-hydroxydopamine unilaterally lesioned rat assessed as contralateral rotation; format: functional, organism-based
D(2) dopamine receptor [9] = target: T1, D(2) dopamine receptor

D(3) dopamine receptor (Rattus norvegicus, UniProt P19020), sequence (P19020 whole entry): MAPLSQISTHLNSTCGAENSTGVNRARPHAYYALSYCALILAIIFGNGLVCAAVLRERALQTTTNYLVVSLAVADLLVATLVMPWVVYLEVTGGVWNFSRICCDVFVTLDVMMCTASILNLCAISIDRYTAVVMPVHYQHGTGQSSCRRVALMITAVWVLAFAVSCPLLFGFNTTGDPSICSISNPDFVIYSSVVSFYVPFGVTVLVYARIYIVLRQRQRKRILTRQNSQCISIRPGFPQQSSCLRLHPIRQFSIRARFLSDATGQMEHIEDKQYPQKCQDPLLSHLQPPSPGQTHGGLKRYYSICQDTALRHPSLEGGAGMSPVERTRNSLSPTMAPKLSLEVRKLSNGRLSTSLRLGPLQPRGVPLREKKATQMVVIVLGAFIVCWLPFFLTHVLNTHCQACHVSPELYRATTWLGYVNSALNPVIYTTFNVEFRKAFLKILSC
D(2) dopamine receptor (Rattus norvegicus, UniProt P61169), sequence (P61169 whole entry): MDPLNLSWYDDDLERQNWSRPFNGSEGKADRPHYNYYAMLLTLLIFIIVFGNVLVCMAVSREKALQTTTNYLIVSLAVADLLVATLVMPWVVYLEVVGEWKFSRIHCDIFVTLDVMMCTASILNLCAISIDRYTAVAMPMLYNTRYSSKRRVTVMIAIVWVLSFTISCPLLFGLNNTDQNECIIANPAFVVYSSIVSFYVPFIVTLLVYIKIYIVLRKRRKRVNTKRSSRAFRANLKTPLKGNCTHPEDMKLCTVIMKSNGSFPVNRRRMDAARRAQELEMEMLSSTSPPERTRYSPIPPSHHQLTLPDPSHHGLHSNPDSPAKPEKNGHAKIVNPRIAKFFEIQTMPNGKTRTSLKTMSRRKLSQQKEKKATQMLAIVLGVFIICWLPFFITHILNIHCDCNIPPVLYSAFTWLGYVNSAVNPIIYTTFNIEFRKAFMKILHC

Row | Ratio Ki (Rattus norvegicus [1]) | Ki (D(3) dopamine receptor [2]) [nM] | Ki (D(2) dopamine receptor [3]) [nM] | SMILES | further results
1 | 91 | 1.56 | 142 | CCCN(CCN1CCN(c2ccccc2)CC1)C1CCc2ccc(O)cc2C1 (stereo not drawn) | –
2 | 4.66 | 160 | 746 | CCCN(CCN1CCN(c2ccccc2)CC1)C1CCc2nnsc2C1 (stereo not drawn) | –
3 | 13.7 | 188 | 2570 | CCCN(CCN1CCN(c2ccccc2)CC1)C1CCc2c[nH]nc2C1 (stereo not drawn) | –
4 | 4.92 | 7.1 | 34.9 | C#CCN(CCN1CCN(c2cccc(Cl)c2Cl)CC1)C1CCc2nc(N)sc2C1 (stereo not drawn) | –
5 | 39.3 | 46.7 | 1830 | CCCN(CCN1CCN(c2ccccc2)CC1)C1CCc2[nH]ncc2C1 (stereo not drawn) | –
6 | 5.9 | 155 | 915 | CCCN(CCN1CCN(c2ccccc2)CC1)C1CCc2oncc2C1 (stereo not drawn) | –
7 | 3.2 | 254 | 813 | CCCN(CCN1CCN(c2ccccc2)CC1)C1CCc2nocc2C1 (stereo not drawn) | –
8 | 2.33 | 34.8 | 81.2 | C#CCN(CCN1CCN(c2ccccc2OC)CC1)C1CCc2nc(N)sc2C1 (stereo not drawn) | –
9 | – | 44 | 1980 | CCCN(CCN1CCN(c2ccccc2)CC1)C1CCc2nc(N)sc2C1 (single isomer, unassigned; (+)) [listing 1 of 2 here] | –
10 | 45 | – | – | CCCN(CCN1CCN(c2ccccc2)CC1)C1CCc2nc(N)sc2C1 (single isomer, unassigned; (+)) [listing 2 of 2 here] | –
11 | – | 7.01 | 288 | CCCN(CCN1CCN(c2ccccc2OC)CC1)C1CCc2nc(N)sc2C1 (single isomer, unassigned; (-)) [listing 1 of 2 here] | –
12 | 41.1 | – | – | CCCN(CCN1CCN(c2ccccc2OC)CC1)C1CCc2nc(N)sc2C1 (single isomer, unassigned; (-)) [listing 2 of 2 here] | –
13 | – | 5.96 | 639 | CCCN(CCN1CCN(c2ccccc2)CC1)C1CCc2nc(N)sc2C1 (stereo in doubt; 6a) [listing 1 of 2 here] | –
14 | 107 | – | – | CCCN(CCN1CCN(c2ccccc2)CC1)C1CCc2nc(N)sc2C1 (stereo in doubt; 6a) [listing 2 of 2 here] | –
15 | – | 5.09 | 166 | CCCN(CCN1CCN(c2ccccc2OC)CC1)C1CCc2nc(N)sc2C1 (stereo in doubt; 6b) [listing 1 of 2 here] | –
16 | 32.6 | – | – | CCCN(CCN1CCN(c2ccccc2OC)CC1)C1CCc2nc(N)sc2C1 (stereo in doubt; 6b) [listing 2 of 2 here] | –
17 | – | 4.15 | 243 | CCCN(CCN1CCN(c2ccccc2)CC1)C1CCc2nc(N)sc2C1 (stereo in doubt; (-)-31) [listing 1 of 2 here] | –
18 | 58.6 | – | – | CCCN(CCN1CCN(c2ccccc2)CC1)C1CCc2nc(N)sc2C1 (stereo in doubt; (-)-31) [listing 2 of 2 here] | –

Second part, the molecule before the results:

Row | SMILES | Ratio Ki (Rattus norvegicus [1]) | Ki (D(3) dopamine receptor [2]) [nM] | Ki (D(2) dopamine receptor [3]) [nM] | further results
19 | CCCN(CCN1CCN(c2ccccc2)CC1)C1CCc2nn[se]c2C1 (stereo not drawn) | 4.64 | 40.7 | 189 | –
20 | CCCN(CCCCN1CCN(c2ccccc2)CC1)C1CCc2nc(N)sc2C1 (stereo not drawn) | 62 | 12.4 | 769 | –
21 | CCCN(CCC)C1CCc2ccc(O)cc2C1 (stereo not drawn) | – | – | – | Emax (D(2) dopamine receptor [4]): 61.4%
22 | CCCN(CCN1CCN(c2ccccc2OC)CC1)C1CCc2nc(N)sc2C1 (single isomer, unassigned; (+)) [listing 1 of 2 here] | – | 101 | 243 | –
23 | CCCN(CCN1CCN(c2ccccc2OC)CC1)C1CCc2nc(N)sc2C1 (single isomer, unassigned; (+)) [listing 2 of 2 here] | 2.4 | – | – | –
24 | CCCN(CCN1CCN(c2ccc(-c3ccccc3)cc2)CC1)C1CCc2nc(N)sc2C1 (single isomer, unassigned; (-)) | 253 | 0.92 | 264 | Activity (Rattus norvegicus [5]): 2092; EC50 (D(3) dopamine receptor [6]): 0.085 nM; Activity (Rattus norvegicus [7]): 3866; Emax (D(2) dopamine receptor [4]): 119%; Activity (Rattus norvegicus [8]): Dose-dependent effect; EC50 (D(2) dopamine receptor [9]): 19.9 nM
25 | CCCN(CCN1CCN(c2cccc(Cl)c2Cl)CC1)C1CCc2nc(N)sc2C1 (stereo in doubt; 6c) [listing 1 of 2 here] | – | 1.82 | 68.4 | –
26 | CCCN(CCN1CCN(c2cccc(Cl)c2Cl)CC1)C1CCc2nc(N)sc2C1 (stereo in doubt; 6c) [listing 2 of 2 here] | 37.6 | – | – | –
27 | CCCN(CCN1CCN(c2cccc(Cl)c2Cl)CC1)C1CCc2nc(N)sc2C1 (stereo in doubt; (+)-33) [listing 1 of 2 here] | – | 12 | 44.2 | –
28 | CCCN(CCN1CCN(c2cccc(Cl)c2Cl)CC1)C1CCc2nc(N)sc2C1 (stereo in doubt; (+)-33) [listing 2 of 2 here] | 3.68 | – | – | –
29 | CCCN(CCN1CCN(c2cccc(Cl)c2Cl)CC1)C1CCc2nc(N)sc2C1 (stereo in doubt; (-)-33) [listing 1 of 2 here] | – | 1.8 | 56.8 | Activity (Rattus norvegicus [5]): 2281; EC50 (D(3) dopamine receptor [6]): 0.06 nM; Activity (Rattus norvegicus [7]): 2766; EC50 (D(2) dopamine receptor [9]): 13.4 nM
30 | CCCN(CCN1CCN(c2cccc(Cl)c2Cl)CC1)C1CCc2nc(N)sc2C1 (stereo in doubt; (-)-33) [listing 2 of 2 here] | 31.6 | – | – | Emax (D(2) dopamine receptor [4]): 78.8%; Activity (Rattus norvegicus [8]): Dose-dependent effect
